Consider 15 molecules from patent US6380235B1, “Benzimidazolones and analogues” (American Home Products Corporation, priority 1999, dated 2002).

Data set [1] deals with rat uterine decidualization. Put plainly: Rat decidualization assay. Format: in vivo. Conditions: ovariectomized female Sprague-Dawley rats; for Estimated average EC50 for dose-response curves (decidual response): s.c. Here is the method:
2. Rat Decidualization Assay
b. Animals (RACUC Protocol #5002)
The animals are treated once daily for seven days.
Uteri are removed and trimmed of fat.
Body weight: Mean total animal body weight (default-kg)
Decidual response: [(D-C)/C]×100%

Data set [2] has as its target T1, human PR (Homo sapiens, UniProt P06401).
T1 construct: expressed in transfected cells; host or cells: CV-1 cells, electroporated with pLEM-hPR-B and pGL3-2xPRE-luciferase
T1 sequence (P06401 1-933): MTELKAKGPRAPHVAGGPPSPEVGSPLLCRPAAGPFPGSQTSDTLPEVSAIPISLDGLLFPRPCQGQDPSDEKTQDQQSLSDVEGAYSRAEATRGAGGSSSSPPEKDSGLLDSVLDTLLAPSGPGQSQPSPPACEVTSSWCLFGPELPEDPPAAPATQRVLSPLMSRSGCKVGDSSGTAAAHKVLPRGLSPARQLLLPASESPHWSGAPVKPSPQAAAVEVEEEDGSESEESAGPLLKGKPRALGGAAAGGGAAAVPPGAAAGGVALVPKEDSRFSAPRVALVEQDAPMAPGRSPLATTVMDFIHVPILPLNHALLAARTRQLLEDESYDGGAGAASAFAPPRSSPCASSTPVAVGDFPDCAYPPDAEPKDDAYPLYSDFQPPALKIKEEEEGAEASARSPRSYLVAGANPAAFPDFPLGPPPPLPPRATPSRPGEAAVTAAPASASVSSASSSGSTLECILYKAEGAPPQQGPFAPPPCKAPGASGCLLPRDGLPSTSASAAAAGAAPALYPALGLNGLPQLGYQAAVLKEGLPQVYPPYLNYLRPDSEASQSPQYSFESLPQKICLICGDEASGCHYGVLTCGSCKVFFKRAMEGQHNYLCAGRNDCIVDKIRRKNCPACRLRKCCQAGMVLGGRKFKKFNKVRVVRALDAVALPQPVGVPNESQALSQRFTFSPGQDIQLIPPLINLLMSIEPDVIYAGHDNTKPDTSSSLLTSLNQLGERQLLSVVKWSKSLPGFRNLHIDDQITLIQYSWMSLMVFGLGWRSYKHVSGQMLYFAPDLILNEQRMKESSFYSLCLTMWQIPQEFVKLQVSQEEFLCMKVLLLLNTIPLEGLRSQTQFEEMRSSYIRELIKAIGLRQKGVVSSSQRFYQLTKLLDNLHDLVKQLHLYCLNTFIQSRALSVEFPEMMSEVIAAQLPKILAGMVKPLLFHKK
The experiment in a line: PRE-luciferase assay in CV-1 cells (hPR CV-1). The data set is classed as cell-based. The method, then: 3. PRE-luciferase Assay in CV-1 Cells
The object of this assay is to determine a compound's progestational or antiprogestational potency based on its effect on PRE-luciferase reporter activity in CV-1 cells co-transfected with human PR and PRE-luciferase plasmids. The materials methods used in the assay are as follows.
DMEM (BioWhittaker) containing 10% (v/v) fetal bovine serum (heat inactivated), 0.1 mM MEM non-essential amino acids, 100 U/ml penicillin, […] streptomycin, and 2 mM GlutaMax (GIBCO, BRL). Experimental medium: DMEM (BioWhittaker), phenol red-free, containing 10% (v/v) charcoal-stripped fetal bovine serum (heat-inactivated), 0.1 mM MEM non-essential amino acids, 100 U/ml penicillin, […] streptomycin, and 2 mM GlutaMax (GIBCO, BRL).
b. Cell Culture Transfection Treatment, and Luciferase Assay
Stock CV-1 cells are maintained in growth medium. Co-transfection is done using 1.2×10^7 cells, […] pLEM plasmid with hPR-B inserted at Sphl and BamHl sites, 10 mg pGL3 plasmid with two PREs upstream of the luciferase sequence, and 50 mg sonicated calf thymus DNA as carrier DNA in […]. Electroporation is carried out at 260 V and […] in a Biorad Gene Pulser II. After electroporation, cells are resuspended in growth medium and plated in 96-well plate at 40,000 cells/well in 200 μl. Following overnight incubation, the medium is changed to experimental medium. […] Twenty-four hr. after treatment, the medium is discarded, cells are washed three times with D-PBS (GIBCO, BRL). Fifty μl of cell lysis buffer (Promega, Madison, Wis.) is added to each well and the plates are shaken for 15 min in a Titer Plate Shaker (Lab Line Instrument, Inc.). Luciferase activity is measured using luciferase reagents from Promega.
Each treatment consists of at least 4 replicates. Log transformed data are used for analysis of variance and nonlinear dose response curve fitting for both agonist and antagonist modes. Huber weighting is used to downweight the effects of outliers. EC50 or IC50 values are calculated from the retransformed values.

Data set [3] deals with alkaline phosphatase activity in T47D cells. Put plainly: T47D cell alkaline phosphatase assay. The data set is classed as cell-based. The conditions noted are these: antagonist activity in the presence of 1 nM progesterone, 24 hr. Here is the method: 4. T47D Cell Alkaline Phosphatase Assay
The purpose of this assay is to identify progestins or antiprogestins by determining a compound's effect on alkaline phosphatase activity in T47D cells.
DMEM:F12 (1:1) (GIBCO, BRL) supplemented with 5% (v/v) charcoal stripped fetal bovine serum (not heat-inactivated), 100 U/ml penicillin, 100 μg/ml streptomycin, and 2 mM GlutaMax (GIBCO, BRL). b. Alkaline Phosphatase Assay Buffer
I. 0.1 M Tris-HCl, pH 9.8, containing 0.2% Triton X-100
II. 0.1 M Tris-HCl, pH 9.8 containing 4 mM p-nitrophenyl phosphate (Sigma). c. Cell Culture and Treatment
Frozen T47D cells were thawed in a 37° C. water bath and diluted to 280,000 cells/ml in culture medium. To each well in a 96-well plate (Falcon, Becton Dickinson Labware), 180 μl of diluted cell suspension was added. Twenty μl of reference or test compounds diluted in the culture medium was then added to each well. […] The cells were incubated at 37° C. in a 5% CO2/humidified atmosphere for 24 hr. […]
d. Alkaline Phosphatase Enzyme Assay
At the end of treatment, the medium was removed from the plate and fifty μl of assay buffer I was added to each well. The plates were shaken in a titer plate shaker for 15 min. […]
For reference and test compounds, a dose response curve is generated for dose (X-axis) vs. the rate of enzyme reaction (slope) (Y-axis). […] EC50 or IC50 values are calculated from the retransformed values.

Data set [4] relates to T47D cells. The experiment in a line: T47D cell proliferation assay (BrdU incorporation). Format: cell-based. The method, then:
1. T47D Cell Proliferation Assay
The objective of this assay is the determination of progestational and antiprogestational potency by using a cell proliferation assay in T47D cells. A compound's effect on DNA synthesis in T47D cells is measured.
DMEM:F12 (1:1) (GIBCO, BRL) supplemented with 10% (v/v) fetal bovine serum (not heat-inactivated), 100 U/ml penicillin, […] streptomycin, and […] GlutaMax (GIBCO, BRL).
Minimum Essential Medium (MEM) (#51200-038GIBCO, BRL) phenol red-free supplemented with 0.5% charcoal stripped fetal bovine serum, 100 U/ml penicillin, […] streptomycin, and 2 mM GlutaMax (GIBCO, BRL). […]
At the end of BrdU labeling, the medium is removed and BrdU incorporation is measured using a cell proliferation ELISA kit (#RPN 250, Amersham Life Science) according to manufacturer's instructions. […] Then 25 μl of 1 M sulfuric acid is added to each well to stop color reaction and optical density is read in a plate reader at 450 nm within 5 min.
Square root-transformed data are used for analysis of variance and nonlinear dose response curve fitting for both agonist and antagonist modes. […] EC50 or IC50 values are calculated from the retransformed values.
Trimegestone and medroxyprogesterone acetate (MPA) are reference progestins and RU486 is the reference antiprogestin. All reference compounds are run in fill dose-response curves and the EC50 or IC50 values are calculated.
(Incorporation of labelled thymidine or its analogues reports DNA synthesis.)

The melting point is the temperature, or range, at which the solid turns liquid.

“And” between values parts separate entries of the source, which are not always exact repeats. Equal values may be shown once.

In the case of `C#C[C@]1(O)CC[C@H]2[C@@H]3CCC4=CC(=O)CC[C@@H]4[C@H]3C(=C)C[C@@]21CC` [3-Ketodesogestrel], in data set [1] (s.c. once daily for seven days, individual studies), the “Estimated EC50 for uterine weight (decidual response)” value was 0.10 mg/kg, s.c. and 0.06 mg/kg, s.c. and 0.11 mg/kg, s.c. The “Estimated average EC50 for dose-response curves (decidual response)” value in data set [1] is listed as 0.10 mg/kg, s.c.
On to `O=c1[nH]c2ccc(-c3cccc([N+](=O)[O-])c3)cc2n1Cc1ccccc1` [Compound 2, 1-Benzyl-6-(3-nitro-phenyl)-1,3-dihydro-benzoimidazol-2-one], for which the IC50 in data set [2] turned out to be 230 nM.
In data set [2], `Cn1c(=O)[nH]c2cc(-c3cccc([N+](=O)[O-])c3)ccc21` [Compound 5] registered an IC50 of 750 nM.
In data set [2], `CC(C)n1c(=O)[nH]c2ccc(-c3cccc([N+](=O)[O-])c3)cc21` [Compound 6] yielded an IC50 of 147 nM.
For `CC(C)n1c(=O)[nH]c2ccc(-c3cccc(Cl)c3)cc21` [Compound 7], the IC50 in data set [2] was 155 nM.
Molecule `O=C1CSc2cc(-c3cccc([N+](=O)[O-])c3)ccc2N1` [Compound B1, 7-(3-Nitro-phenyl)-4H-benzo[1,4]thiazin-3-one] showed an IC50 in data set [2] of 220 nM.
Turning to `CCC1Sc2cc(-c3cccc([N+](=O)[O-])c3)ccc2NC1=O` (stereo not shown) [Compound B2], the IC50 in data set [2] came out at 295 nM.
Regarding `CN1CC(=O)Nc2ccc(-c3cccc(Cl)c3)cc21` [Compound C1, 6-(3-Chloro-phenyl)-4-methyl-3,4-dihydro-1H-quinoxalin-4-one], the IC50 in data set [3] is 600 nM.
In data set [2], `O=C1CNc2cc(-c3cccc(Cl)c3)ccc2N1` [Compound C2] had an IC50 of 525 nM.
For the molecule `CN1CC(=O)Nc2ccc(-c3cc(C#N)cs3)cc21` [Compound C3, 5-(3,4-Dihydro-4-methyl-2-oxo-quinaxalin-6-yl)thiophene-3-carbonitrile], the IC50 in data set [3] worked out at 300 nM.
As for `CCCCN1CC(=O)Nc2ccc(-c3cccc(Cl)c3)cc21` [Compound C6, 4-(n-Butyl)-6-(3-chloro-phenyl)-3,4-dihydro-1H quinoxalin-2-one], the melting point lay within 110 to 115 °C.
Molecule `CC(C)OC(=O)N1CC(=O)Nc2ccc(-c3cccc(Cl)c3)cc21` [Example 29, Isopropyl 7-(3-chlorophenyl)-3-oxo-3,4-dihydroquinoxalin-1(2H)-carboxylate] returned a melting point of 174 to 176 °C.
For the molecule `C#C[C@]1(O)CC[C@H]2[C@@H]3CCC4=CC(=O)CC[C@@H]4[C@H]3CC[C@@]21CC` [Levonorgestrel], the “Estimated average EC50 for dose-response curves (decidual response)” value in data set [1] was 0.10 mg/kg, s.c.
In the case of `CC#C[C@]1(O)CC[C@H]2[C@@H]3CCC4=CC(=O)CCC4=C3[C@@H](c3ccc(N(C)C)cc3)C[C@@]21C` [RU486], in data set [4] (read-out: Estimated IC50 (half-maximal decrease in trimegestone induced BrdU incorporation), in presence of 0.03 nM trimegestone (b226 prints 0.1), individual studies), the IC50 was 0.016 nM and 0.018 nM.
Turning to `C[C@H](O)C(=O)[C@@]1(C)CC[C@H]2[C@@H]3CCC4=CC(=O)CCC4=C3CC[C@@]21C` [Trimegestone], in data set [4] (individual studies, read-out: Estimated EC50 (half-maximal increase in BrdU incorporation)), the EC50 is 0.017 nM and 0.014 nM and 0.019 nM.
